Data from ChEMBL document CHEMBL3585314, “Initial development of a cytotoxic amino-seco-CBI warhead for delivery by prodrug systems” (Bioorg Med Chem, 2015).
Values belong to the molecule of their own block, whether it stands above or below them.

What was measured:
L1210 [1] = experiment: Cytotoxicity against mouse L1210 cells after 3 days by coulter counter analysis; format: functional, cell-based; settings: L1210, 72 h
Calf thymus DNA [2] = experiment: Binding affinity to calf thymus DNA assessed as change in melting temperature at 6.9 DNA to compound ratio at pH 7.2 by spectrophotometric analysis; format: nucleic-acid assay; settings: Bos taurus
LNCaP = experiment: Cytotoxicity against human LNCAP cells assessed as inhibition of cell proliferation by MTS assay; format: functional, cell-based
L1210 [3] = experiment: Cytotoxicity against mouse L1210 cells after 24 hrs by MTT assay; format: functional, cell-based; settings: L1210, 24 h
Calf thymus DNA [4] = experiment: Binding affinity to calf thymus DNA assessed as change in melting temperature treated with (5-amino-1-(chloromethyl)-1H-benzo[e]indol-3(2H)-yl)(5-(2-(dimethylamino)ethoxy)-1H-indol-2-yl)methanone at 0.2 equiv. per base pair at pH 7 after 1 hr by spectrometric analysis; format: nucleic-acid assay; settings: Bos taurus
L1210 [5] = experiment: Cytotoxicity against mouse L1210 cells; format: functional, cell-based

SMILES: COc1c(O)c2c(c3cc(C(=O)N4CCc5c4c(O)c(OC)c4[nH]c(C(=O)N6C[C@H]7C[C@@]78C6=CC(=O)c6[nH]cc(C)c68)cc54)[nH]c13)CCN2C(N)=O [(+)-CC-1065]
IC50 (L1210 [1]): 0.024 nM
ΔTm (Calf thymus DNA [2]): 31 °C

SMILES: CN(C)CCOc1ccc2[nH]c(C(=O)N3CC(CCl)c4c3cc(NC(=O)OC(C)(C)C)c3ccccc43)cc2c1 (configuration not stated)
IC50 (LNCaP): 218 nM

SMILES: COc1cc2[nH]c(C(=O)N3C[C@H]4C[C@@]45C3=CC(=O)c3[nH]c(C(=O)N4CCc6c4c(O)c(OC)c4[nH]c(C(=O)SC)cc64)cc35)cc2cc1O
IC50 (L1210 [3]): 0.005 nM

SMILES: CN(C)CCOc1ccc2[nH]c(C(=O)N3CC(CCl)c4c3cc(N)c3ccccc43)cc2c1 (configuration not stated)
IC50 (LNCaP): 18 nM

ΔTm (Calf thymus DNA [4]): 13 °C
SMILES: CN(C)CCOc1ccc2[nH]c(C(=O)N3CC4CC45C3=CC(=N)c3ccccc35)cc2c1 (configuration not stated)

SMILES: COC(=O)c1cc2c([nH]1)C(=O)C=C1N(C(=O)c3cc4cc(OC)c(OC)c(OC)c4[nH]3)CC3CC123 (configuration not stated) [DUOCARMYCIN SA]
IC50 (L1210 [5]): 0.01 nM
